Assay results: ChEMBL document CHEMBL3232907, “A high-throughput cell-based method to predict the unbound drug fraction in the brain” (J Med Chem, 2014)

conditions: human, hek293, 0.1 µM

In order of rising Fu:
1. CSc1ccc2c(c1)N(CCC1CCCCN1C)c1ccccc1S2 (stereo unspecified) [THIORIDAZINE]  0.049
2. COC(=O)C1=C(C)NC(C)=C(C(=O)OCCN(C)Cc2ccccc2)C1c1cccc([N+](=O)[O-])c1 (stereo unspecified) [NICARDIPINE]  0.095
3. O=C1c2c(O)ccc(O)c2C(=O)c2c(NCCNCCO)ccc(NCCNCCO)c21 [MITOXANTRONE]  0.13
4. CC(C)(C)NC(=O)[C@@H]1C[C@@H]2CCCC[C@@H]2CN1C[C@@H](O)[C@H](Cc1ccccc1)NC(=O)[C@H](CC(N)=O)NC(=O)c1ccc2ccccc2n1  0.17
5. CN(C)CCCN1c2ccccc2CCc2ccc(Cl)cc21 [CLOMIPRAMINE]  0.19
6. CC[C@H](C)C(=O)O[C@H]1C[C@@H](C)C=C2C=C[C@H](C)[C@H](CC[C@@H]3C[C@@H](O)CC(=O)O3)[C@H]21 [LOVASTATIN]  0.22
7. Fc1ccc([C@@H]2CCNC[C@H]2COc2ccc3c(c2)OCO3)cc1 [PAROXETINE]  0.25
8. CN(C)C(=O)C(CCN1CCC(O)(c2ccc(Cl)cc2)CC1)(c1ccccc1)c1ccccc1 [LOPERAMIDE]  0.35
9. CC(=O)N1CCN(c2ccc(OCC3COC(Cn4ccnc4)(c4ccc(Cl)cc4Cl)O3)cc2)CC1 (stereo unspecified) [KETOCONAZOLE]  0.39
10. CC(CN(C)C)CN1c2ccccc2CCc2ccccc21 (stereo unspecified) [TRIMIPRAMINE]  0.4
11. CCCc1nc2c(C)cc(-c3nc4ccccc4n3C)cc2n1Cc1ccc(-c2ccccc2C(=O)O)cc1  0.42
12. O=C(CCCN1CCC(O)(c2ccc(Cl)cc2)CC1)c1ccc(F)cc1 [HALOPERIDOL]  0.52
13. COCc1c(C(C)C)nc(C(C)C)c(/C=C/[C@@H](O)C[C@@H](O)CC(=O)O)c1-c1ccc(F)cc1 [CERIVASTATIN]  0.55
14. CO[C@H]1/C=C/O[C@@]2(C)Oc3c(C)c(O)c4c(O)c(c(/C=N/N5CCN(C)CC5)c(O)c4c3C2=O)NC(=O)/C(C)=C\C=C\[C@H](C)[C@H](O)[C@@H](C)[C@@H](O)[C@@H](C)[C@H](OC(C)=O)[C@@H]1C [RIFAMPIN]  0.62
15. O=C(CCCN1CCC2(CC1)C(=O)NCN2c1ccccc1)c1ccc(F)cc1 [SPIPERONE]  0.66
16. Cc1ncc2n1-c1ccc(Cl)cc1C(c1ccccc1F)=NC2 [MIDAZOLAM]  0.66
17. CC(=O)[C@H]1CC[C@H]2[C@@H]3CCC4=CC(=O)CC[C@]4(C)[C@H]3CC[C@]12C [PROGESTERONE]  0.67
18. CC(C)NCC(O)COc1cccc2ccccc12 (stereo unspecified) [PROPRANOLOL]  0.7
19. O=C(O)c1cc(/N=N/c2ccc(S(=O)(=O)Nc3ccccn3)cc2)ccc1O [SULFASALAZINE]  0.72
20. O=C(O)Cc1ccccc1Nc1c(Cl)cccc1Cl [DICLOFENAC]  0.78
21. COc1ccc2c(c1)c(CC(=O)O)c(C)n2C(=O)c1ccc(Cl)cc1 [INDOMETHACIN]  0.79
22. CN(C)CCCC1(c2ccc(F)cc2)OCc2cc(C#N)ccc21 (stereo unspecified) [CITALOPRAM]  0.81
23. COc1ccc2c(c1)[C@]13CCCC[C@@H]1[C@H](C2)N(C)CC3 [DEXTROMETHORPHAN]  0.82
24. CC(C)(C)NCC(O)COc1ccc(NC(=O)NC2CCCCC2)cc1 (stereo unspecified) [TALINOLOL]  0.85
25. C[C@@H]1CN(c2c(F)c(N)c3c(=O)c(C(=O)O)cn(C4CC4)c3c2F)C[C@H](C)N1 [SPARFLOXACIN]  0.88
26. CCCCN1CCCCC1C(=O)Nc1c(C)cccc1C (stereo unspecified) [BUPIVACAINE]  0.89
27. C=CCc1ccccc1OCC(O)CNC(C)C (stereo unspecified) [ALPRENOLOL]  0.9
28. CC(C)CN(C[C@@H](O)[C@H](Cc1ccccc1)NC(=O)O[C@H]1CCOC1)S(=O)(=O)c1ccc(N)cc1  0.92
29. Cc1nccn1CC1CCc2c(c3ccccc3n2C)C1=O (stereo unspecified) [ONDANSETRON]  0.94
30. CCN(CC)CCNC(=O)c1cc(Cl)c(N)cc1OC [METOCLOPRAMIDE]  0.95
31. NC(=O)N1c2ccccc2C=Cc2ccccc21 [CARBAMAZEPINE]  0.97
32. COCCc1ccc(OCC(O)CNC(C)C)cc1 (stereo unspecified) [METOPROLOL]  1
33. CN/C(=N/CCSCc1nc[nH]c1C)NC#N [CIMETIDINE]  1
34. CCCNC(=O)NS(=O)(=O)c1ccc(Cl)cc1 [CHLORPROPAMIDE]  1
35. CNC(=C[N+](=O)[O-])NCCSCc1ccc(CN(C)C)o1 [RANITIDINE]  1

test: Unbound fraction in HEK293 cell homogenate at 0.01 uM by equilibrium dialysis based UPLC-MS/MS analysis; format: ADME; conditions: human, hek293, 0.01 µM

Work on `Cc1c(O)cccc1C(=O)N[C@@H](CSc1ccccc1)[C@H](O)CN1C[C@H]2CCCC[C@H]2C[C@H]1C(=O)NC(C)(C)C` yielded a Fu of 0.024.
